# Legend:
# [1] = biological target: T1, neuronal nicotinic acetylcholine receptors (Rattus norvegicus, UniProt P09483+P12390); assay: [3H]-cytisine binding to neuronal nicotinic acetylcholine receptors, crude synaptic membranes from whole rat brain; details: [3H]-CYT 1.25 nM, whole rat brain membranes, 60 minutes at 4° C.; Cheng and Prusoff correction; Table 1; read-out: Ki
# T1 construct: crude synaptic membrane preparations from whole rat brain; from tissue; host or cells: whole rat brain, crude synaptic membranes
# T1 sequence (P09483 31-630): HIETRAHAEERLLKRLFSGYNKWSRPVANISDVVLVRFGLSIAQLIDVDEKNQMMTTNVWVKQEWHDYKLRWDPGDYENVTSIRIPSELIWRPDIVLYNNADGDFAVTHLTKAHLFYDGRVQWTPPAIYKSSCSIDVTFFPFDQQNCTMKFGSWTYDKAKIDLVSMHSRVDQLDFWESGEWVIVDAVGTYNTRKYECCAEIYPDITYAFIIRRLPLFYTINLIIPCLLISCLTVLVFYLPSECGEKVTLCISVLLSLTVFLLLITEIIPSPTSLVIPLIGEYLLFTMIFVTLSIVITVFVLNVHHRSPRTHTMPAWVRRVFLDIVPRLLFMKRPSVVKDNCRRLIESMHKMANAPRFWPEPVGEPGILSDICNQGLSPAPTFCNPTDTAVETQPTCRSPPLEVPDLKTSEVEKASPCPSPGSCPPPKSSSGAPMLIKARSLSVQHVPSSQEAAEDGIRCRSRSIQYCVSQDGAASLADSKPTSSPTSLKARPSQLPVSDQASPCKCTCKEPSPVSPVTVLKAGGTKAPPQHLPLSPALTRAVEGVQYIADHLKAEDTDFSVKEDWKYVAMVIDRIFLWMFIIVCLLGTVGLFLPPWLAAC
# T1 sequence (P12390 25-500): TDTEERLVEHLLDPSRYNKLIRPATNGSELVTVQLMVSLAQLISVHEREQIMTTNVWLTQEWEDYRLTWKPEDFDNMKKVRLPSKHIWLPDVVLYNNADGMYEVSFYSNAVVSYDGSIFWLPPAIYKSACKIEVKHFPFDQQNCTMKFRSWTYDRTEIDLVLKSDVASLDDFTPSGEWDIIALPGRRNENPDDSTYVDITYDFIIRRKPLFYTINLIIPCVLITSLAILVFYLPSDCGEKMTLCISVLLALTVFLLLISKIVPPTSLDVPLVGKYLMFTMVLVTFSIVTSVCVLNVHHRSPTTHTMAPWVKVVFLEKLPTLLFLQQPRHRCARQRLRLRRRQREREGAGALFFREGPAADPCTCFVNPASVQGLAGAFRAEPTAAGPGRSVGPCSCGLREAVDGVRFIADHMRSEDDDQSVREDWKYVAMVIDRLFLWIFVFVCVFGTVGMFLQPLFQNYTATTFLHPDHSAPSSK
# Description: The in vitro protocols for determination of nicotinic acetylcholine channel receptor binding potencies of ligands was determined as follows.
# Binding of [^3H]-cytisine ([^3H]-CYT) to neuronal nicotinic acetylcholine receptors was accomplished using crude synaptic membrane preparations from whole rat brain (Pabreza et al., Molecular Pharmacol., 1990, 39:9). Washed membranes were stored at −80° C. prior to use. Frozen aliquots were slowly thawed and resuspended in 20 volumes of buffer (containing: 120 mM NaCl, 5 mM KCl, 2 mM MgCl2, 2 mM CaCl2 and 50 mM Tris-Cl, pH 7.4 @4° C.). After centrifuging at 20,000×g for 15 minutes, the pellets were resuspended in 30 volumes of buffer.
# The test compounds were dissolved in water to make 10 mM stock solutions. Each solution was then diluted (1:100) with buffer (as above) and further taken through seven serial log dilutions to produce test solutions from 10^−5 to 10^−11 M.
# Homogenate (containing 125-150 µg protein) was added to triplicate tubes containing the range of concentrations of test compound described above and [^3H]-CYT (1.25 nM) in a final volume of 500 μL. Samples were incubated for 60 minutes at 4° C., then rapidly filtered through Whatman GF/B filters presoaked in 0.5% polyethyleneimine using 3×4 mL of ice-cold buffer. The filters are counted in 4 mL of Ecolume® (ICN). Nonspecific binding was determined in the presence of 10 μM (−)-nicotine and values were expressed as a percentage of total binding. IC50 values were determined with a four-parameter non-linear regression and IC50 values were converted to K1 values using the Cheng and Prusoff correction (K1=IC50/(1+[ligand]/Kd of ligand).
# Each Example number corresponds to the synthetic Examples described above. […] The lower the Ki value, the more affinity for neuronal nicotinic acetylcholine receptors.
# mouse hot plate paradigm = mouse hot plate paradigm (analgesia, latency until tenth jump); assay type: in vivo; details: mice, intraperitoneal, dosed 30 minutes prior to testing, hot plate 55° C.; for Analgesic MED (μmol/kg): footnote symbols for no effect; for Analgesic MED: minimally effective dose among the doses tested
# Description: An in vivo protocol was utilized to determine the effectiveness of nicotinic acetylcholine receptor ligands as analgesic agents in the mouse hot plate paradigm.
# Separate groups of mice, (n=8/group) were utilized for each dose group. All drugs were administered by the intraperitoneal route of administration. Test drugs were dissolved in water to make a 6.2 mM stock solution. Animals were dosed with this solution (10 mL/kg body weight) for a 62 micromol/kg dose. Lower doses were administered similarly, following serial dilution of the stock solution in half-log increments. Animals were dosed 30 minutes prior to testing in the hot plate. The hot-plate utilized was an automated analgesia monitor (Model #AHP16AN, Omnitech Electronics, Inc. of Columbus, Ohio). The temperature of the hot plate was maintained at 55° C. and a cut-off time of 180 seconds was utilized. A control was run against each compound tested. Latency until the tenth jump was recorded as the dependent measure. An increase in the tenth jump latency relative to the control was considered a significant effect.
Structure (SMILES),Ki [1] [nM],Analgesic MED (μmol/kg) (mouse hot plate paradigm),melting point [°C],Analgesic MED (mouse hot plate paradigm) [µmol/kg]
"CC(COc1cnc(Cl)c(C=Cc2ccncc2)c1)N(C)C (single isomer, unassigned) [Example 14]",0.367,* (no effect at 62),79 to 81,–
"CC(COc1cnc(Cl)c(C=Cc2ccncc2)c1)N(C)C (single isomer, unassigned) [Example 39]",0.103,* (no effect at 62),81 to 83,–
"CC[C@H](N)COc1ccc(Cl)nc1.Cc1ccc(S(=O)(=O)O)cc1 [Example 15, 5-[(S)-2-amino-1-butyloxy]-2-chloro pyridine p-toluenesulfonic acid]",14.7,* (no effect at 62),–,–
"CC[C@H](N)COc1cnc(Cl)c(Br)c1.Cc1ccc(S(=O)(=O)O)cc1 [Example 18, 5-[(S)-2-amino-1-butyloxy]-2-chloro-3-bromo pyridine p-toluenesulfonic acid]",14.8,* (no effect at 62),–,–
"CC[C@@H](COc1cnc(Cl)c(C=Cc2ccncc2)c1)N(C)C [Example 20, 5-[(S)-2-N-dimethylamino-1-butyloxy]-2-chloro-3-(4-vinylpyridinyl) pyridine di-p-toluenesulfonic acid]",3.61,–,73 to 75,–
"CN(C)[C@H](COc1cnc(Cl)c(C=Cc2ccncc2)c1)Cc1ccccc1 [Example 24, 5-[(S)-2-N-dimethyl-amino-3-phenyl-1-propyloxy]-2-chloro-3-(4-vinylpyridinyl) pyridine di-p-toluenesulfonic acid]",4.63,* (no effect at 62),81 to 83,–
"CN[C@H](C)COc1ccc(Cl)nc1.Cc1ccc(S(=O)(=O)O)cc1 [Example 28, 5-[(R)-2-methylamino-1-propyloxy]-2-chloropyridine p-toluenesulfonic acid]",5.87,–,–,62
"C[C@@H](N)COc1ccc(F)nc1.Cc1ccc(S(=O)(=O)O)cc1 [Example 29, 5-[(R)-2-amino-1-propyloxy]-2-fluoro pyridine p-toluenesulfonic acid]",6.6,–,–,62
"C[C@H](COc1ccc(F)nc1)N(C)C.Cc1ccc(S(=O)(=O)O)cc1 [Example 30, 5-[(R)-2-dimethylamino-1-propyloxy]-2-fluoro pyridine p-toluenesulfonic acid]",70.2,* (no effect at 62),–,–
"CN[C@H](C)COc1ccc(F)nc1.Cc1ccc(S(=O)(=O)O)cc1 [Example 31, 5-[(R)-2-methylamino-1-propyloxy]-2-fluoro pyridine p-toluenesulfonic acid]",11.4,–,–,62
"C[C@@H](N)COc1cnc(Cl)c(Br)c1.Cc1ccc(S(=O)(=O)O)cc1 [Example 32, 5-[(R)-2-amino-1-propyloxy]-2-chloro-3-bromo pyridine p-toluenesulfonic acid]",1.54,–,–,62
"CN[C@H](C)COc1cnc(Cl)c(Br)c1.Cc1ccc(S(=O)(=O)O)cc1 [Example 34, 5-[(R)-2-methylamino-1-propyloxy]-2-chloro-3-bromo pyridine p-toluenesulfonic acid]",1.48,* (no effect at 62),–,–
"Cc1cc(OC[C@@H](C)N)cnc1Cl.Cc1ccc(S(=O)(=O)O)cc1 [Example 35, 5-[(R)-2-amino-1-propyloxy]-2-chloro-3-methyl pyridine p-toluenesulfonic acid]",0.985,–,–,62
"Cc1cc(OC[C@@H](C)N(C)C)cnc1Cl.Cc1ccc(S(=O)(=O)O)cc1 [Example 36, 5-[(R)-2-dimethylamino-1-propyloxy]-2-chloro-3-methyl pyridine p-toluenesulfonic acid]",7.2,* (no effect at 62),–,–
"CN[C@H](C)COc1cnc(Cl)c(C)c1.Cc1ccc(S(=O)(=O)O)cc1 [Example 37, 5-[(R)-2-methylamino-1-propyloxy]-2-chloro-3-methyl pyridine p-toluenesulfonic acid]",0.565,* (no effect at 62),–,–

# From US20010034357A1, “Substituted pyridine compounds useful for controlling chemical synaptic transmission” (priority 2000, published 2001)
